Data reported in patent US20050014849A1, “Antifungal phenylethylene” (priority 2001, published 2005).

Key:
bovine brain tubulin [1] = tested on: T1, bovine brain tubulin; experiment: Colchicine binding assay; conditions: 5 μM (combretastatin A-4 1.6 μg/ml; TMPN 1.2 μg/ml); 10 min at 37° C.
T1 construct: Electrophoretically homogeneous bovine brain tubulin [12]
Experimental: (§1) Electrophoretically homogeneous bovine brain tubulin [12] was used in studies to evaluate the effects of TMPN on in vitro tubulin polymerization and the binding of […] (Dupont-NEN) to tubulin. These studies were performed as described previously. In the polymerization assay, varying drug concentrations were added to 1 mg/ml tubulin to determine the amount of drug that would inhibit the extent of the reaction by 50% (20 min incubation at 30° C.) (IC50 value). In the colchicine binding assay, the effect of varying drug concentrations on the binding of 2 μg/ml colchicine to 100 μg/ml tubulin was measured after 10 min at 37° C. (control reaction about 50% complete).

bovine brain tubulin [2] = tested on: T1, bovine brain tubulin; experiment: Tubulin polymerization assay; format: biochemical; conditions: 1 mg/ml tubulin; 20 min incubation at 30° C.
Experimental: as §1

SMILES: COc1ccc(/C=C\c2cc(OC)c(OC)c(OC)c2)cc1O [combretastatin A-4, reference compound]
- inhibition of [^3H]colchicine binding to tubulin (bovine brain tubulin [1]): 98+1%
- IC50 for inhibition of the extent of tubulin assembly (bovine brain tubulin [2]): 0.32 ± 0.02 µg/mL
